This note sets out measurements from patent US7713966B2, “Heterobicyclic metalloprotease inhibitors” (Alantos Pharmaceuticals Holding, Inc., priority 2006, dated 2010).

The structures appear in SMILES notation. Bounds are passed on as bounds.

For assay [1], the target named is T1, catalytic domain of MMP-13 enzyme (Homo sapiens, UniProt P45452).
T1 construct: catalytic domain of MMP-13 enzyme (produced by Alantos or commercially available from Invitek (Berlin), Cat. # 30100812); purchased Invitek (Berlin) 30100812
Description: Assay for determining MMP-13 inhibition (fluorescent substrate). Particulars: read-out: MMP-13 Activity (IC50 MMP-13), Group. It is filed as biochemical. The method, then:
The typical assay for MMP-13 activity is carried out in assay buffer comprised of 50 mM Tris, pH 7.5, 150 mM NaCl, 5 mM CaCl2 and 0.05% Brij-35. Different concentrations of tested compounds are prepared in assay buffer in 50 μL aliquots. 10 μL of a 50 nM stock solution of catalytic domain of MMP-13 enzyme (produced by Alantos or commercially available from Invitek (Berlin), Cat. # 30100812) is added to the compound solution. The mixture of enzyme and compound in assay buffer is thoroughly mixed and incubated for 10 min at room temperature. Upon the completion of incubation, the assay is started by addition of 40 μl of a 12.5 μM stock solution of MMP-13 fluorescent substrate (Calbiochem, Cat. No. 444235). The time-dependent increase in fluorescence is measured at the 320 nm excitation and 390 nm emission by automatic plate multireader. The IC50 values are calculated from the initial reaction rates.

In a further assay the target is T2, activated MMP-8 enzyme (Homo sapiens, UniProt P22894).
T2 construct: purchased Calbiochem 444229
The assay is described as follows: Assay for determining MMP-8 inhibition (OmniMMP fluorescent substrate). Format: biochemical. Particulars: read-out: MMP-8 Activity (IC50 MMP-8), Group. The method, then:
The typical assay for MMP-8 activity is carried out in assay buffer comprised of 50 mM Tris, pH 7.5, 150 mM NaCl, 5 mM CaCl2 and 0.05% Brij-35. Different concentrations of tested compounds are prepared in assay buffer in 50 μL aliquots. 10 μL of a 50 nM stock solution of activated MMP-8 enzyme (Calbiochem, Cat. No. 444229) is added to the compound solution. The mixture of enzyme and compound in assay buffer is thoroughly mixed and incubated for 10 min at 37° C. Upon the completion of incubation, the assay is started by addition of 40 μL of a 10 μM stock solution of OmniMMP fluorescent substrate (Biomol, Cat. No. P-126). The time-dependent increase in fluorescence is measured at the 320 nm excitation and 390 nm emission by an automatic plate multireader at 37° C. The IC50 values are calculated from the initial reaction rates.

T2 sequence (P22894 101-467): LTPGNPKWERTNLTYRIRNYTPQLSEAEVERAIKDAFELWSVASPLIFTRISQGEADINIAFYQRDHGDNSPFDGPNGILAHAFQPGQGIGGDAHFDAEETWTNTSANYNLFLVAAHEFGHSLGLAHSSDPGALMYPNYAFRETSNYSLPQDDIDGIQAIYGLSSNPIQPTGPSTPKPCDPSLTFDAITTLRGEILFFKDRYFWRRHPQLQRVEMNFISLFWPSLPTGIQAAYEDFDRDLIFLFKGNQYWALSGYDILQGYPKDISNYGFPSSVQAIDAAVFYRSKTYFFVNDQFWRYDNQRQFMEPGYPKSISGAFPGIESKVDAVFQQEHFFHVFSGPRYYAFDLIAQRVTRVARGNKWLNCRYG

As to `CCOC(=O)c1c(C)sc2nc(C(=O)NCc3ccc4c(c3)NC(=O)CO4)[nH]c(=O)c12` [2/22], the 50% inhibitory concentration (IC50) in assay [1] is under 100 nM; at activated MMP-8 enzyme, 250 to 20000 nM.
For the molecule `Cc1nsc2nc(C(=O)NCc3ccc4c(c3)NC(=O)CO4)[nH]c(=O)c12` [2/136], the IC50 in assay [1] lay in the range of 100 to 20000 nM.
The same measure, in the same setting: to `CCOC(=O)Cc1c([N+](=O)[O-])sc2nc(C(=O)NCc3ccc4c(c3)CN(c3c(N)c(=O)c3=O)CC4)[nH]c(=O)c12` [2/164] belongs 100 to 20000 nM.
Regarding `C#Cc1ccc2nc(C(=O)NCc3ccc4c(c3)NC(=O)CO4)[nH]c(=O)c2c1` [Example 8], the IC50 was under 100 nM in assay [1] and under 250 nM at activated MMP-8 enzyme.
For `O=C(Cc1csc2nc(C(=O)NCc3ccc4c(c3)NC(=O)CO4)[nH]c(=O)c12)NCc1ccc2c(c1)NC(=O)CO2` [2/149], in that order: under 100 nM and under 250 nM.
For `O=C1COc2ccc(CNC(=O)c3nc4c(Br)cc(F)cc4c(=O)[nH]3)cc2N1` [39/23], the IC50 in assay [1] was under 100 nM.
As to `Cc1c(C(=O)Nc2ccccc2)sc2nc(C(=O)NCc3ccc4c(c3)NC(=O)CO4)[nH]c(=O)c12` [2/62], the IC50 in assay [1] was under 100 nM; on activated MMP-8 enzyme, 250 to 20000 nM.
Consider `O=C1COc2ccc(CNC(=O)c3nc4sccc4c(=O)[nH]3)cc2N1` [Example 1], for which, in assay [1], the IC50 was under 100 nM.
Still for that read-out and setting: to `COc1cc2nc(C(=O)NCc3ccc4c(c3)NC(=O)CO4)[nH]c(=O)c2cc1OC` [2/65] belongs 100 to 20000 nM.
On to `Cc1sc2nc(C(=O)NCc3ccc4c(c3)NC(=NO)CO4)[nH]c(=O)c2c1C` [2/275], for which the IC50 in assay [1] was under 100 nM; on activated MMP-8 enzyme it was under 250 nM.
For `O=C1COc2ccc(CNC(=O)c3nc4snnc4c(=O)[nH]3)cc2N1` [39/6], the IC50 in assay [1] was in the range of 100 to 20000 nM.
Same read-out and setting: in the case of `Cn1ncc2c(=O)[nH]c(C(=O)NCc3ccc4c(c3)NC(=O)CO4)nc21` [2/111] it was under 100 nM.
As for `Cc1c(CO)sc2nc(C(=O)NCc3ccc4c(c3)NC(=O)CO4)[nH]c(=O)c12` [Example 20a], the IC50 in assay [1] was under 100 nM.
Regarding `O=C(NCc1ccc2c(c1)CCO2)c1nc2ccccc2c(=O)[nH]1` [2/7], the IC50 in assay [1] is under 100 nM; at activated MMP-8 enzyme it was 250 to 20000 nM.
For the molecule `NCc1ccc2nc(C(=O)NCc3ccc4c(c3)NC(=O)CO4)[nH]c(=O)c2c1` [Example 15], the IC50 in assay [1] was under 100 nM.
Turning to `Cc1sc2nc(C(=O)NCc3ccc4c(c3)NC(=O)CO4)[nH]c(=O)c2c1C(=O)O` [4/1], in assay [1], the IC50 fell in the range of 100 to 20000 nM.
Regarding `Cc1c(CCC(=O)O)sc2nc(C(=O)NCc3ccc4c(c3)NC(=O)CO4)[nH]c(=O)c12` [4/8], at activated MMP-8 enzyme, the IC50 was under 250 nM.
Consider `O=C(NCc1ccc2c(c1)OCO2)c1nc2ccccc2c(=O)[nH]1` [Example 2/5], for which the IC50 is under 100 nM in assay [1] and 250 to 20000 nM at activated MMP-8 enzyme.
For `O=C1COc2ccc(CNC(=O)c3nc4cc([N+](=O)[O-])ccc4c(=O)[nH]3)cc2N1` [39/22], in that order: under 100 nM and under 250 nM.
On to `O=C1COc2ccc(CNC(=O)c3nc4scc(-c5ccc(-c6ccccc6)cc5)c4c(=O)[nH]3)cc2N1` [2/138], for which the half-inhibitory concentration (IC50) in assay [1] is under 100 nM.
The same measure, in the same setting: to `Cc1nc2c(=O)[nH]c(C(=O)NCc3ccc4c(c3)NC(=O)CO4)nc2s1` [2/179] belongs under 100 nM; to `O=C1COc2ccc(CNC(=O)c3nc4ccc(-c5nnn[nH]5)cc4c(=O)[nH]3)cc2N1` [Example 11], under 100 nM.
Turning to `O=C1COc2cc(CNC(=O)c3nc4ccc(Cl)cc4c(=O)[nH]3)ccc2N1` [2/27], the IC50 fell in the range of 100 to 20000 nM in assay [1] and 250 to 20000 nM on activated MMP-8 enzyme.
Take `O=C1COc2ccc(CNC(=O)c3nc4nonc4c(=O)[nH]3)cc2N1` [39/3]: the IC50 in assay [1] fell in the range of 100 to 20000 nM.
In the case of `O=C(NCc1ccc2c(c1)OC(F)(F)O2)c1nc2ccccc2c(=O)[nH]1` [2/6], the half-inhibitory concentration (IC50) in assay [1] lay within 100 to 20000 nM; on activated MMP-8 enzyme it was 250 to 20000 nM.
With `NC(=O)Cc1csc2nc(C(=O)NCc3ccc4c(c3)NC(=O)CO4)[nH]c(=O)c12` [Example 2/156], on activated MMP-8 enzyme, the IC50 is under 250 nM.
With `O=C1COc2ccc(CNC(=O)c3nc4scc(-c5ccccc5Cl)c4c(=O)[nH]3)cc2N1` [2/101], the IC50 in assay [1] was under 100 nM; at activated MMP-8 enzyme, 250 to 20000 nM.
For `O=C(O)CCC(=O)NCc1ccc2nc(C(=O)NCc3ccc4c(c3)NC(=O)CO4)[nH]c(=O)c2c1` [Example 17], in that order: under 100 nM and under 250 nM.
On to `CCOC(=O)c1sc2nc(C(=O)NCc3ccc4c(c3)NCCO4)[nH]c(=O)c2c1C` [Example 20b], for which the IC50 in assay [1] fell in the range of 100 to 20000 nM.
On to `Cc1sc2nc(C(=O)NCc3ccc4c(c3)NS(=O)(=O)CO4)[nH]c(=O)c2c1C` [Example 38], for which the IC50 in assay [1] lay in the range of 100 to 20000 nM.
Regarding `Cc1cccc2nc(C(=O)NCc3cccc(CNc4c(N)c(=O)c4=O)c3)[nH]c(=O)c12` [Example 2/15], the IC50 on activated MMP-8 enzyme lay in the range of 250 to 20000 nM.
In the case of `NC(=O)c1ccc2c(=O)[nH]c(C(=O)NCc3ccc4c(c3)NC(=O)CO4)nc2c1` [13/1], the IC50 in assay [1] was in the range of 100 to 20000 nM.
As for `C[C@H](O)CNc1cccc2nc(C(=O)NCc3ccc4c(c3)NC(=O)CO4)[nH]c(=O)c12` [36/13], the half-maximal inhibitory concentration (IC50) at activated MMP-8 enzyme was under 250 nM.
For `Cc1nc2c(=O)[nH]c(C(=O)NCc3ccc4c(c3)CN(c3c(N)c(=O)c3=O)CC4)nc2s1` [2/180], the IC50 in assay [1] is under 100 nM.
Same read-out and setting: in the case of `CC(=O)N1CCOc2ccc(CNC(=O)c3nc4sc(CO)c(C)c4c(=O)[nH]3)cc21` [Example 25] it was 100 to 20000 nM; in that of `O=C1COc2ccc(CNC(=O)c3nc4ccc(C#Cc5ccccc5)cc4c(=O)[nH]3)cc2N1` [Example 8/1], under 100 nM; in that of `Cc1c(C(=O)O)sc2nc(C(=O)NCc3ccc4c(c3)NC(=O)CO4)[nH]c(=O)c12` [4/2], 100 to 20000 nM.
In the case of `Cc1csc(-c2csc3nc(C(=O)NCc4ccc5c(c4)NC(=O)CO5)[nH]c(=O)c23)n1` [2/379], in assay [1], the IC50 was under 100 nM.
Still for that read-out and setting: in the case of `Cc1noc2nc(C(=O)NCc3ccc4c(c3)NC(=O)CO4)[nH]c(=O)c12` [39/12] it was 100 to 20000 nM; in that of `COc1cccc2c(=O)[nH]c(C(=O)NCc3ccc4c(c3)NC(=O)CO4)nc12` [39/21], 100 to 20000 nM; in that of `NC(=O)[C@@H]1CCCN1c1cccc2nc(C(=O)NCc3ccc4c(c3)NC(=O)CO4)[nH]c(=O)c12` [36/8], under 100 nM.
On to `Cn1c(C(=O)NCc2ccc3c(c2)NC(=O)CO3)nc2ccccc2c1=O` [2/50], for which, in assay [1], the IC50 is 100 to 20000 nM.
On the same count and under the same terms, in the case of `O=C1COc2ccc(CNC(=O)c3nc4ccc(C(=O)Nc5ccccc5)cc4c(=O)[nH]3)cc2N1` [31/1] it was 100 to 20000 nM.
Same read-out and setting: to `O=C1COc2cc(CNC(=O)c3nc4ccccc4c(=O)[nH]3)ccc2N1` [2/205] belongs 100 to 20000 nM.
In the case of `O=C1COc2ccc(CNC(=O)c3nc4ccc(C(=O)O)cc4c(=O)[nH]3)cc2N1` [Example 3], the IC50 in assay [1] is under 100 nM.
`Cc1cccc2nc(C(=O)NCc3ccc(F)c(CNc4c(N)c(=O)c4=O)c3)[nH]c(=O)c12` [2/17]: the 50% inhibitory concentration (IC50) at activated MMP-8 enzyme is 250 to 20000 nM.
As for `CC(=O)OCc1sc2nc(C(=O)NCc3ccc4c(c3)N(C(C)=O)CCO4)[nH]c(=O)c2c1C` [Example 24], the IC50 in assay [1] is under 100 nM.
For the molecule `Cc1sc2nc(C(=O)NCc3cc(Br)c4c(c3)NC(=O)CO4)[nH]c(=O)c2c1C` [2/281], the IC50 in assay [1] is under 100 nM.
On the same count and under the same terms, in the case of `O=C1COc2ccc(CNC(=O)c3nc4cccc(C(F)(F)F)c4c(=O)[nH]3)cc2N1` [39/1] it was under 100 nM.
As to `C[C@@H](Nc1cccc2nc(C(=O)NCc3ccc4c(c3)NC(=O)CO4)[nH]c(=O)c12)C(=O)OC(C)(C)C` [36/6], at activated MMP-8 enzyme, the IC50 is under 250 nM.

The term IC50 denotes the concentration needed to halve the response being measured.
